Test results reported in PubChem BioAssay (NCI).
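Method: 48-hour compound exposure of cells in 96-well plates, five concentrations, linear interpolation of endpoints. TGI is the concentration that stops growth completely.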

Key:
Assay in all cases: NCI tumour cell line growth inhibition, 48 h
K-562 leukemia = tested on: K-562 leukemia
T-47D breast = tested on: T-47D breast
CCRF-CEM leukemia = tested on: CCRF-CEM leukemia
M14 melanoma = tested on: M14 melanoma
COLO 205 colon = tested on: COLO 205 colon
UACC-62 melanoma = tested on: UACC-62 melanoma
786-0 renal = tested on: 786-0 renal
SK-OV-3 ovarian = tested on: SK-OV-3 ovarian
TK-10 renal = tested on: TK-10 renal
HCC-2998 colon = tested on: HCC-2998 colon

SMILES: Clc1ccc(Nc2nnc(CNc3ccc(-c4nnc(Nc5ccc(Cl)cc5)o4)cc3)o2)cc1
- TGI (K-562 leukemia): > 100 µM
- TGI (T-47D breast): 56.6 µM
- TGI (CCRF-CEM leukemia): > 100 µM
- TGI (M14 melanoma): 43.2 µM
- TGI (COLO 205 colon): 36.3 µM
- TGI (UACC-62 melanoma): 27.8 µM
- TGI (786-0 renal): 21.8 µM
- TGI (SK-OV-3 ovarian): 49.7 µM
- TGI (TK-10 renal): 28.9 µM
- TGI (HCC-2998 colon): 27.8 µM
